Consider two compounds from US7534742B2, “Isoprenoid biosynthesis” (priority 1999, dated 2009).

This test concerns the target T1, YgbP (Escherichia coli, UniProt Q46893).
T1 construct: made in house; host or cells: E. coli XL1-Blue, plasmid pNCOygbP (vector pNCO113)
The experiment in a line: Screening of 4-diphosphocytidyl-2C-methyl-D-erythritol synthase by spectrophotometric method (coupled pyrophosphate/NADP+ assay, 340 nm). The format is biochemical, E. coli. The note with it: 37° C. As for the experimental part:
Recombinant 4-diphosphocytidyl-2C-methyl-D-erythritol synthase is tested by a spectrophotometric assay at 340 nm, in which the inorganic pyrophosphate formed from 2-C-methyl-D-erythritol 4-phosphate and CTP is used in a cascade of downstream reactions leading to the reduction of NADP^+. Reactions mixtures contained 50 mM Tris hydrochloride pH 8.0, 200 μM 2C-methyl-D-erythritol 4-phosphate, 200 μM CTP, 5 mM MgCl2, 1 mM DTT, 1 μM glucose 1,6-biphosphate, 500 μM UDP-Glucose, 174 μM NADP^+, 0.125 U of UDP-glucose pyrophosphorylase, 0.16 U of phosphoglucomutase, and 1 U of glucose 6-phosphate deydrogenase, various concentrations of D-erythritol 4-phosphate respectively D-ribitol 5-phosphate as shown in Table 4 and 10 μl of enzyme in a total volume of 1 ml. One unit of enzyme activity is defined as the amount of enzyme catalyzing the conversion of 1 μmol of substrate per min at 37° C.

[1] abbreviates: test compound concentration 0.2 mM.
[2] abbreviates: test compound concentration 0.4 mM.
Where [3] appears, read: test compound concentration 0.8 mM.
The mark [4] stands for this setting: test compound concentration 1.6 mM.
[5] abbreviates: test compound concentration 3.2 mM.

T1 sequence (Q46893 2-236): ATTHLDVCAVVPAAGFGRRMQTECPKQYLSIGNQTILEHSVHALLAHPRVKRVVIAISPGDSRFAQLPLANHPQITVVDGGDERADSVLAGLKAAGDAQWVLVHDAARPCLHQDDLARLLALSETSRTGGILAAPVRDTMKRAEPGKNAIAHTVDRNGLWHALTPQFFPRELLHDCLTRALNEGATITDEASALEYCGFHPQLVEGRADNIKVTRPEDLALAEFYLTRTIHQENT

Take `O=P(O)(O)OC[C@@H](O)[C@@H](O)CO` [D-erythritol 4-phosphate]: the specific activity under setting [1] came out at 15.9 µmol/min/mg; the specific activity under setting [2] is 15.9 µmol/min/mg; the specific activity under setting [3] turned out to be 12.9 µmol/min/mg; the specific activity under setting [4] is 5.9 µmol/min/mg; the specific activity under setting [5] is listed as 0 (0%) μmol min^−1 mg^−1. Besides, the “specific activity (% of activity at 0 mM test compound)” value is, setting by setting: under setting [1], 92%; under setting [2], 92%; under setting [3], 75%; under setting [4], 34%; under setting [5], 0 (0%).

`O=P(O)(O)OC[C@@H](O)[C@@H](O)[C@@H](O)CO` [D-ribitol 5-phosphate]: the specific activity is, setting by setting: under setting [1], 16.5 µmol/min/mg; under setting [4], 16.9 µmol/min/mg. In addition, the “specific activity (% of activity at 0 mM test compound)” value runs as follows: under setting [1], 102%; under setting [4], 105%.
